What was measured:
aldose reductase (AR) = molecular target: T1, aldose reductase (AR) (Rattus norvegicus, UniProt P07943); assay: Activity of aldose reductase (AR) of lens in GK rats; format: in vivo, Goto-Kakizaki rats (GK); settings: oral daily 12 weeks, specific activity, in U/mg protein; for AR activity of lens NADH (0.1 mmol/L): NADH 0.1 mmol/L system; for AR activity of lens NADPH (0.1 mmol/L): NADPH 0.1 mmol/L system
T1 construct: from tissue; host or cells: lens of GK (Goto-Kakizaki) and Wistar rats
Method: GK rats control group (n=10); mangiferin groups (10, 30, 200 mg/kg, each group 10 rats); berberine groups (10, 20, 150 mg/kg, each group 10 rats); composition group 1[[mangiferin (10 mg/kg)+berberine (10 mg/kg)], 10 rats]; composition group 2[[mangiferin (200 mg/kg)+berberine (150 mg/kg)], 10 rats]. Wistar rats are normal control group (10 rats). GK rats control group and Wistar rats group were given saline. The other groups were given test drugs. Test samples were administrated orally at the same time every day for 12 weeks. […] At the End of the experiment, the left side lens of rats was taken, then these lenses were added into glycerol and put into refrigerator (−80° C.□) to preserve to determine AR activity. The determination method of AR activity refer to Maragoudakis's method and change slightly, that is: the activity of enzyme is indicated by the record of the absorbance of NADPH in 340 nm decline IOU. […] The second reaction system is 0.1 mmol/L NADH instead of NADPH, the rest of the reagent is same as one of the first response system. The activity of enzyme and the protein content in tissue homogenate are determined at the same time. a unit enzyme activity is indicated by the quantity of the enzyme that produce 1 μmol NADP^+ (or NDA^+) in one minute. […] The results have been calculated as mean±SD ( x±SD) and the comparisons of the data have been done by t-test. There are ten rats in every group. GK rats control group and wistar rats group were given saline. The other groups were given test drugs. Test samples were administrated orally at the same time every day for 12 weeks. The measurements are as same as the above experiment.

Propyl dialdehyde (MDA) = Propyl dialdehyde (MDA) in kidney tissue homogenate of GK rats; format: in vivo, Goto-Kakizaki rats (GK); settings: oral daily 12 weeks
Method: GK rats control group (n=10); mangiferin groups (10, 30, 200 mg/kg, each group 10 rats); berberine groups (10, 20, 150 mg/kg, each group 10 rats); composition group 1[[mangiferin (10 mg/kg)+berberine (10 mg/kg)], 10 rats]; composition group 2[[mangiferin (200 mg/kg)+berberine (150 mg/kg)], 10 rats]. Wistar rats are normal control group (10 rats). GK rats control group and Wistar rats group were given saline. The other groups were given test drugs. Test samples were administrated orally at the same time every day for 12 weeks. 3.3.1 Preparation of tissue homogenate: Rats were killed by femoral artery bloodletting after administration of the rats for 12-weeks. Kidney tissue of the rats were taken, the blood of kidney tissue were washed with cooling saline (4° C.), then the remnant water was absorbed with filter paper, the kidney tissue was weighed. Per gram kidney tissue was added into 10 ml saline, which was put in homogenized machine (10,000 r/min, 10 seconds, 3rd), 10% tissue homogenate was prepared, the tissue homogenate was centrifuged (4000 r/min) for 10 minutes to get supernatant, the supernatant was saved in −20° C. for determination. 3.3.2.2 Propyl dialdehyde (MDA): MDA is determined by TBA, the test box was bought from Nanjing Jiancheng Bioengineering Research Institute. […] The results have been calculated as mean±SD ( x±SD) and the comparisons of the data have been done by t-test. There are ten rats in every group. GK rats control group and wistar rats group were given saline. The other groups were given test drugs. Test samples were administrated orally at the same time every day for 12 weeks. The measurements are as same as the above experiment.

[1] = cited from earlier work
rat = settings: intraperitoneal injection once; cited from earlier work
[2] = 2.0 g once orally; cited from earlier work
[3] = in vivo; cited from earlier work

AR activity of lens NADH (0.1 mmol/L) (aldose reductase (AR); 20 mg/kg) | AR activity of lens NADPH (0.1 mmol/L) (aldose reductase (AR); 20 mg/kg) | AR activity of lens NADH (0.1 mmol/L) (aldose reductase (AR); 150 mg/kg) | AR activity of lens NADPH (0.1 mmol/L) (aldose reductase (AR); 150 mg/kg) | Structure (SMILES) | AR activity of lens NADH (0.1 mmol/L) (aldose reductase (AR); 10 mg/kg) | AR activity of lens NADPH (0.1 mmol/L) (aldose reductase (AR); 10 mg/kg) | AR activity of lens NADH (0.1 mmol/L) (aldose reductase (AR); 30 mg/kg) | AR activity of lens NADPH (0.1 mmol/L) (aldose reductase (AR); 30 mg/kg) | AR activity of lens NADH (0.1 mmol/L) (aldose reductase (AR); 200 mg/kg) | AR activity of lens NADPH (0.1 mmol/L) (aldose reductase (AR); 200 mg/kg) | Measurements about oxidation MDA (Propyl dialdehyde (MDA); 10 mg/kg) [nmol/mg pro] | Measurements about oxidation MDA (Propyl dialdehyde (MDA); 30 mg/kg) [nmol/mg pro] | Measurements about oxidation MDA (Propyl dialdehyde (MDA); 200 mg/kg) [nmol/mg pro] | Solubility in water [1] | LD50 (rat) [mg/kg] | Measurements about oxidation MDA (Propyl dialdehyde (MDA); 20 mg/kg) [nmol/mg pro] | Measurements about oxidation MDA (Propyl dialdehyde (MDA); 150 mg/kg) [nmol/mg pro] | Adverse reactions [2] | Bioavailability [3]
– | – | – | – | O=c1c2cc(O)c(O)cc2oc2cc(O)c([C@@H]3O[C@H](CO)[C@@H](O)[C@H](O)[C@H]3O)c(O)c12 [Mangiferin] | 2.89 ± 0.69 | 5.36 ± 2.17 | 1.64 ± 0.42 | 3.05 ± 0.59 | 0.94 ± 0.45 | 1.87 ± 0.51 | 4.41 ± 0.87 | 3.48 ± 0.47 | 2.75 ± 0.48 | cannot dissolve in water | 365 | – | – | – | –
1.32 ± 0.37 | 2.28 ± 0.51 | 0.94 ± 0.45 | 1.87 ± 0.51 | COc1ccc2cc3[n+](cc2c1OC)CCc1cc2c(cc1-3)OCO2 [Berberine] | 2.98 ± 0.60 | 5.64 ± 2.19 | – | – | – | – | 4.39 ± 0.90 | – | – | – | – | 3.51 ± 0.46 | 2.76 ± 0.40 | we don't find any adverse reactions | very low

From US7867979B2, “Drug composition for treating 2 type diabetes and diabetic chronicity complications” (Hainan Deze Drug Research Co., Ltd., priority 2006, dated 2011)
